Where two headings read alike, the source gives them in different places.
Columns and labels:
Type in all cases: cell-based
[1] = test system: LNCaP (androgen sensitive prostate cancer cells); experiment: Anti-proliferation activity against LNCaP cells; conditions: Homo sapiens, LNCaP
Procedure: (§1) Upon completion of synthesis of library of compounds in Examples 23 and 24, the compounds were evaluated for anti-proliferative activity against SkBr3 (Her2 overexpressing breast cancer cells), MCF-7 (estrogen receptor positive breast cancer cells), HCT-116 (colon cancer cells characterized by wild-type p53), PL45 (pancreatic cancer cells), LNCaP (androgen sensitive prostate cancer cells) and PC-3 (androgen independent prostate cancer cells) cell lines. […] The monosubstituted benzamide variants improved activity.
(§2) Cells were maintained in a 1:1 mixture of Advanced DMEM/F12 (Gibco) supplemented with non-essential amino acids, L-glutamine (2 mM), streptomycin (500 ng/mL), penicillin (100 units/mL), and 10% FBS. Cells were grown to confluence in a humidified atmosphere (37° C., 5% CO2), seeded (2000/well, 100 μl) in 96-well plates, and allowed to attach overnight. Compound or GDA at varying concentrations in DMSO (1% DMSO final concentration) was added, and cells were returned to the incubator for 72 hours. At 72 hours, the number of viable cells was determined using an MTS/PMS cell proliferation kit (Promega) per the manufacturer's instructions. Cells incubated in 1% DMSO were used at 100% proliferation, and values were adjusted accordingly. IC50 values were calculated from separate experiments performed in triplicate using GraphPad Prism.

[2] = test system: PC-3 (androgen independent prostate cancer cells); experiment: Anti-proliferation activity against PC-3 cells; conditions: Homo sapiens, PC-3
Procedure: as §1
as §2, with “[…] […]” for “Compound or GDA at varying concentrations in DMSO (1% DMSO final concentration) was added, and cells were returned to the incubator for 72 hours. At 72 hours, the number of viable cells was determined using an MTS/PMS cell proliferation kit (Promega) per the manufacturer's instructions.”

[3] = test system: SkBr3 (Her2 overexpressing breast cancer cells); experiment: Anti-proliferation activity against SkBr3 cells (MTS/PMS); conditions: Homo sapiens, SK-BR-3
Procedure: (§3) Upon completion of synthesis of library of compounds in Examples 23 and 24, the compounds were evaluated for anti-proliferative activity against SkBr3 (Her2 overexpressing breast cancer cells), MCF-7 (estrogen receptor positive breast cancer cells), HCT-116 (colon cancer cells characterized by wild-type p53), PL45 (pancreatic cancer cells), LNCaP (androgen sensitive prostate cancer cells) and PC-3 (androgen independent prostate cancer cells) cell lines.
as §2
as §2, with “μg/mL),” for “ng/mL),”, “μL)” for “μl)”

[4] = test system: MCF-7 (estrogen receptor positive breast cancer cells); experiment: Anti-proliferation activity against MCF-7 cells (MTS/PMS); conditions: Homo sapiens, MCF7
Procedure: as §3, §2
as §2, with “μg/mL),” for “ng/mL),”, “μL)” for “μl)”

[5] = test system: HCT-116 (colon cancer cells characterized by wild-type p53); experiment: Anti-proliferation activity against HCT-116 cells; conditions: Homo sapiens
Procedure: as §1

[6] = test system: PL45 (pancreatic cancer cells); experiment: Anti-proliferation activity against PL45 cells
Procedure: as §1

[7] = Table 7, 72 hours, MTS/PMS, mean ± standard deviation, read-out: Anti-proliferation activity LnCaP
[8] = Table 7, 72 hours, MTS/PMS, mean ± standard deviation, read-out: Anti-proliferation activity PC-3
[9] = Table 7, 72 hours, MTS/PMS, mean ± standard deviation, read-out: Anti-proliferation activity SkBr3
[10] = Table 7, 72 hours, MTS/PMS, mean ± standard deviation, read-out: Anti-proliferation activity MCF-7
[11] = Table 2, n = 3, read-out: IC50 LNCaP
[12] = Table 2, n = 3, read-out: IC50 PC-3
[13] = Table 2, n = 3, read-out: IC50 SkBr3
[14] = Table 2, n = 3, read-out: IC50 MCF-7
[15] = Table 5, heterocyclic analogues, n = 3, read-out: IC50 LNCaP
[16] = Table 5, heterocyclic analogues, n = 3
[17] = Table 5, heterocyclic analogues, n = 3, read-out: IC50 MCF-7
[18] = Table 5, heterocyclic analogues, n = 3, read-out: IC50 PC-3

With `COc1ccc(CN(C(=O)c2ccc(OC)c(-c3cccc(OC)c3)c2)c2cnc3cc(O[C@@H]4OC(C)(C)[C@H](OC)[C@@H](O)[C@H]4O)ccc3c2)cc1` [42a, N-(4-Methoxybenzyl)-N-(7-((2R,3R,4S,5R)-3,4-dihydroxy-5-methoxy-6,6-dimethyl-tetrahydro-2H-pyran-2-yloxy)quinolin-3-yl)-4-methoxy-3-(3-methoxyphenyl)-benzamide] the IC50 [1, 7] was > 100 µM, the IC50 [2, 8] was > 100 µM and the IC50 [3, 9] was > 100 µM. The IC50 [4, 10] was > 100 µM.

`COc1cccc(-c2cc(C(=O)Nc3cnc4cc(O[C@@H]5OC(C)(C)[C@H](OC)[C@@H](O)[C@H]5O)ccc4c3)ccc2OC)c1` [42b, N-(7-((2R,3R,4S,5R)-3,4-Dihydroxy-5-methoxy-6,6-dimethyl-tetrahydro-2H-pyran-2-yloxy)quinolin-3-yl)-4-methoxy-3-(3-methoxyphenyl)-benzamide] showed an IC50 [1, 7] of 14.2 ± 0.4 µM, an IC50 [2, 8] of 17.6 ± 4.6 µM and an IC50 [3, 9] of 16.5 ± 6.2 µM. It also gave an IC50 [4, 10] of 13.1 ± 4.1 µM.

In the case of `COc1ccc(CN(C(=O)c2ccc(OC)c(-c3cccc(OC)c3)c2)c2ccc3cc(O[C@@H]4OC(C)(C)[C@H](OC)[C@@H](O)[C@H]4O)ccc3c2)cc1` [42c, N-(4-Methoxybenzyl)-N-(6-((2R,3R,4S,5R)-3,4-dihydroxy-5-methoxy-6,6-dimethyl-tetrahydro-2H-pyran-2-yloxy)naphthalen-2-yl)-4-methoxy-3-(3-methoxyphenyl)-benzamide], the IC50 [1, 7] is reported as > 100 µM, the IC50 [2, 8] is reported as > 100 µM and the IC50 [3, 9] is reported as > 100 µM. For the same compound, the IC50 [4, 10] was > 100 µM.

Compound `COc1cccc(-c2cc(C(=O)Nc3ccc4cc(O[C@@H]5OC(C)(C)[C@H](OC)[C@@H](O)[C@H]5O)ccc4c3)ccc2OC)c1` [42d, N-(6-((2R,3R,4S,5R)-3,4-Dihydroxy-5-methoxy-6,6-dimethyl-tetrahydro-2H-pyran-2-yloxy)naphthalen-2-yl)-4-methoxy-3-(3-methoxyphenyl)-benzamide] has an IC50 [1, 7] of 19.6 ± 1.6 µM, an IC50 [2, 8] of 10.9 ± 0.7 µM and an IC50 [3, 9] of 38.9 ± 2.4 µM. For the same compound, the IC50 [4, 10] was 46.4 ± 5.3 µM.

`CO[C@@H]1[C@@H](O)[C@@H](O)[C@H](Oc2ccc3cc(NC(=O)c4ccccc4)c(=O)oc3c2C)OC1(C)C` [compound 8, N-(7-((2R,3R,4S,5R)-3,4-Dihydroxy-5-methoxy-6,6-dimethyltetrahydro-2H-pyran-2-yloxy)-8-methyl-2-oxo-2H-chromen-3-yl)benzamide] gave an IC50 [1, 11] of 72 ± 4 µM, an IC50 ([5]; Table 2, n = 3) of 13 ± 2.1 µM and an IC50 [2, 12] of 67.6 ± 9.7 µM. The IC50 ([6]; Table 2, n = 3) was 3.4 ± 0.6 µM, the IC50 [3, 13] was 21.5 ± 1.4 µM and the IC50 [4, 14] was 20.6 ± 0.4 µM.

`COc1ccccc1C(=O)Nc1cc2ccc(O[C@@H]3OC(C)(C)[C@H](OC)[C@@H](O)[C@H]3O)c(C)c2oc1=O` [compound 9, N-(7-((2R,3R,4S,5R)-3,4-Dihydroxy-5-methoxy-6,6-dimethyltetrahydro-2H-pyran-2-yloxy)-8-methyl-2-oxo-2H-chromen-3-yl)-2-methoxybenzamide] was tested, and the IC50 ([5]; Table 2, n = 3) was > 100 µM, the IC50 [2, 12] was 9.1 ± 0.5 µM and the IC50 ([6]; Table 2, n = 3) was 35.8 ± 3.4 µM. The IC50 [3, 13] was > 100 µM and the IC50 [4, 14] was 5.3 ± 1.3 µM.

In the case of `COc1cccc(C(=O)Nc2cc3ccc(O[C@@H]4OC(C)(C)[C@H](OC)[C@@H](O)[C@H]4O)c(C)c3oc2=O)c1` [compound 10, N-(7-((2R,3R,4S,5R)-3,4-Dihydroxy-5-methoxy-6,6-dimethyltetrahydro-2H-pyran-2-yloxy)-8-methyl-2-oxo-2H-chromen-3-yl)-3-methoxybenzamide], the IC50 [1, 11] is reported as 21.7 ± 2 µM, the IC50 ([5]; Table 2, n = 3) is reported as 1.9 ± 0.6 µM and the IC50 ([6]; Table 2, n = 3) is reported as 2.8 ± 0.8 µM. The IC50 [3, 13] was > 100 µM and the IC50 [4, 14] was 5.6 ± 2.5 µM.

`COc1ccc(C(=O)Nc2cc3ccc(O[C@@H]4OC(C)(C)[C@H](OC)[C@@H](O)[C@H]4O)c(C)c3oc2=O)cc1` [compound 11, N-(7-((2R,3R,4S,5R)-3,4-Dihydroxy-5-methoxy-6,6-dimethyltetrahydro-2H-pyran-2-yloxy)-8-methyl-2-oxo-2H-chromen-3-yl)-4-methoxybenzamide] showed an IC50 [1, 11] of 7.3 ± 0.9 µM, an IC50 ([5]; Table 2, n = 3) of 15.9 ± 1.9 µM and an IC50 [2, 12] of 17.1 ± 4.3 µM. The IC50 ([6]; Table 2, n = 3) was 5.9 ± 2.1 µM, the IC50 [3, 13] was 15.6 ± 4.2 µM and the IC50 [4, 14] was 10.3 ± 0.9 µM.

With `CO[C@@H]1[C@@H](O)[C@@H](O)[C@H](Oc2ccc3cc(NC(=O)c4ccccc4[N+](=O)[O-])c(=O)oc3c2C)OC1(C)C` [compound 15, N-(7-((2R,3R,4S,5R)-3,4-Dihydroxy-5-methoxy-6,6-dimethyltetrahydro-2H-pyran-2-yloxy)-8-methyl-2-oxo-2H-chromen-3-yl)-2-nitrobenzamide] the IC50 [1, 11] was 16.8 ± 0.8 µM, the IC50 ([5]; Table 2, n = 3) was 44.3 ± 4.8 µM and the IC50 ([6]; Table 2, n = 3) was 20.1 ± 4.7 µM. For the same compound, the IC50 [3, 13] was 21.8 ± 0.8 µM and the IC50 [4, 14] was 28.7 ± 4.8 µM.

With `CO[C@@H]1[C@@H](O)[C@@H](O)[C@H](Oc2ccc3cc(NC(=O)c4cccc([N+](=O)[O-])c4)c(=O)oc3c2C)OC1(C)C` [compound 16, N-(7-((2R,3R,4S,5R)-3,4-Dihydroxy-5-methoxy-6,6-dimethyltetrahydro-2H-pyran-2-yloxy)-8-methyl-2-oxo-2H-chromen-3-yl)-3-nitrobenzamide] the IC50 ([5]; Table 2, n = 3) was > 100 µM, the IC50 [2, 12] was > 100 µM and the IC50 ([6]; Table 2, n = 3) was > 100 µM. For the same compound, the IC50 [3, 13] was > 100 µM and the IC50 [4, 14] was > 100 µM.

`CO[C@@H]1[C@@H](O)[C@@H](O)[C@H](Oc2ccc3cc(NC(=O)OCc4ccccc4)c(=O)oc3c2C)OC1(C)C` [compound 24, Benzyl 7-((2R,3R,4S,5R)-3,4-dihydroxy-5-methoxy-6,6-dimethyltetrahydro-2H-pyran-2-yloxy)-8-methyl-2-oxo-2H-chromen-3-ylcarbamate] gave an IC50 ([5]; Table 3, n = 3) of 13 ± 0.2 µM, an IC50 ([6]; Table 3, n = 3) of 11.4 ± 0.6 µM and an IC50 ([3]; Table 3, n = 3, read-out: IC50 SkBr3) of 17.8 ± 2.4 µM. It also gave an IC50 ([4]; Table 3, n = 3, read-out: IC50 MCF-7) of 12.1 ± 0.1 µM.

`CO[C@@H]1[C@@H](O)[C@@H](O)[C@H](Oc2ccc3cc(NC(=O)c4ccncc4)c(=O)oc3c2C)OC1(C)C` [compound 42, N-(7-((2R,3R,4S,5R)-3,4-Dihydroxy-5-methoxy-6,6-dimethyltetrahydro-2H-pyran-2-yloxy)-8-methyl-2-oxo-2H-chromen-3-yl)isonicotinamide] was tested, and the IC50 [1, 15] was 34.8 ± 16 µM, the IC50 [5, 16] was > 100 µM and the IC50 [6, 16] was 19.2 ± 2.5 µM. For the same compound, the IC50 ([3]; Table 5, heterocyclic analogues, n = 3, read-out: IC50 SkBr3) was > 100 µM and the IC50 [4, 17] was > 100 µM.

For `CO[C@@H]1[C@@H](O)[C@@H](O)[C@H](Oc2ccc3cc(NC(=O)c4cc5ccccc5o4)c(=O)oc3c2C)OC1(C)C` [compound 43, N-(7-((2R,3R,4S,5R)-3,4-Dihydroxy-5-methoxy-6,6-dimethyltetrahydro-2H-pyran-2-yloxy)-8-methyl-2-oxo-2H-chromen-3-yl)benzofuran-2-carboxamide], the IC50 [1, 15] was 7.9 ± 1.1 µM, the IC50 [5, 16] was 9.6 ± 0.3 µM and the IC50 [2, 18] was 18.8 ± 4.4 µM. For the same compound, the IC50 [6, 16] was 3.8 ± 0.4 µM and the IC50 [4, 17] was 28.6 ± 4.1 µM.

With `CO[C@@H]1[C@@H](O)[C@@H](O)[C@H](Oc2ccc3cc(NC(=O)c4cc5ccccc5s4)c(=O)oc3c2C)OC1(C)C` [compound 44, N-(7-((2R,3R,4S,5R)-3,4-Dihydroxy-5-methoxy-6,6-dimethyltetrahydro-2H-pyran-2-yloxy)-8-methyl-2-oxo-2H-chromen-3-yl)benzo[b]thiophene-2-carboxamide] the IC50 [1, 15] was > 100 µM, the IC50 [5, 16] was 78.9 ± 3.5 µM and the IC50 [2, 18] was 7.4 ± 2.1 µM. The IC50 [6, 16] was 33.2 ± 0.7 µM and the IC50 [4, 17] was 96.3 ± 3.7 µM.
